Data on two molecules can be found in paper PMC8583417, “Evaluation of the Antimicrobial Efficacy of N-Acetyl-L-Cysteine, Rhamnolipids, and Usnic Acid—Novel Approaches to Fight Food-Borne Pathogens” (International Journal of Molecular Sciences, 2021).

Test [1] deals with E. coli 693/17. Briefly: MIC for metabolic activity of preformed biofilm (MTT reduction assay). The format is cell-based, Escherichia coli. The method, then: (§1) Ten concentrations of NAC, RLs, and UA were tested to determine the minimum inhibitory concentration for planktonic growth, and subsequently, the six highest concentrations were applied on preformed biofilms to evaluate the biofilm eradication ability of the compounds. MIC was defined as the lowest substance concentration able to inhibit at least 80% of microbial growth (MICPC80 for planktonic cells, MICBC80 for further growth of biofilm cells), inhibit 80% of metabolic activity (MICBM80 for biofilm metabolic activity, MICMPB80 for metabolic activity of preformed biofilm), prevent biofilm formation by at least 80% (MICBF80 for biofilm formation), or reduce a preformed biofilm by at least 80% (MICBR80 for biofilm reduction). The results of MICs are summarized in Table 1 (planktonic cells) and Table 2 (biofilm-associated cells).
(§2) The determination of MICs was performed according to Chlumsky et al.. Briefly, 96-well flat-bottomed microtiter plates were inoculated with 75 µL (for biofilm formation) or 100 µL (for preformed biofilm) of bacterial suspension (A625nm 0.08 to 0.1) in technical triplicates and were then carefully mixed with the dilution series of the test substances (24 h cultivation at 25 °C for S. Infantis, 37 °C for other strains) or were directly cultivated to preform biofilms (18 h). For a positive control of bacterial growth, the inoculum was mixed with a pure sterile medium. Furthermore, the sterile medium was included in the plate as a marker of potential microbial contamination. To evaluate planktonic cells growth (MICPC80) and further growth of biofilm cells (MICBC80), the optical density of the content of the microtiter plates was measured spectrophotometrically at 625 nm before and after 24 h (for biofilm formation) of cultivation or before and after additional 20 h incubation with the tested compound (for preformed biofilm). The difference of A625nm was considered as a measure of the ability of cells to grow in the presence of the tested substances. To evaluate the inhibition of biofilm formation (MICBF80) and reduction in preformed biofilms (MICBR80), biomass was quantified using crystal violet staining, and its metabolic activity (MICBM80 and MICMPB80) was estimated by using the MTT (thiazyl tetrazolium bromide, Sigma-Aldrich, USA) reduction assay, both measured spectrophotometrically at 595 nm.
(§3) All inhibitions were calculated using the formula of Chlumsky et al. below (Equation (1)):(1) A625(595)nm inhibition (%)=A625(595)nm (control) – A625(595)nm(natural substance)/A625(595)nm (control)× 100 where A625(595)nm (control) is the absorbance of bacterial suspension/biofilm itself, and A625(595)nm(natural substance) is the absorbance of the bacterial suspension/biofilm with the added natural substance (NAC, RLs, and UA).
(§4) When the minimum inhibitory concentration could not be determined, the MIC was established as >the highest tested concentration for NAC, RLs, and UA.
On the technique in general: Tetrazolium dyes change colour on reduction, which living cells bring about.

In test [2] the test system is E. coli 683/17. The description is as above. The format is cell-based, Escherichia coli. Conditions: for MICMPB80: ≥80% inhibition, 20 h with substance. Here is the method: as §1, §2, §3, §4
Test [3] relates to S. Enteritidis ATCC 13076. As to the kind of experiment: CLSM analysis, biofilm prevention. The format is cell-based, Salmonella enterica Enteritidis. Conditions: 24 h exposure; for Thickness (µm) subCBM80: substance at subinhibitory concentration, mean ± SD. The method, then: Biofilm prevention and removal analyses were performed using previously determined minimum inhibitory and subinhibitory concentrations for metabolic activity (MICBM80, subCBM80; MICMPB80, subCMPB80) of NAC, RLs, and UA specific for each tested strain. Selected concentrations were used to evaluate the inhibition of biofilm formation (biofilm prevention) and the reduction in previously formed biofilms (biofilm removal) for the same set of microorganisms, with the exception of S. Infantis, which was excluded from the analysis due to its inability to form biofilm in the selected microtiter plate. Biofilm prevention and removal were observed using CLSM with specific staining to distinguish between live and membrane-compromised cells. Images were analyzed to evaluate (i). the total volume of the biomass, (ii). ratios of live and membrane-compromised cells, and (iii). to calculate biofilm volume reduction for individual organisms after the respective treatment types. The total biofilm volume was normalized by the area of the well and expressed as an average biofilm thickness. Complete data are provided in Supplementary Materials (Tables S1–S8).
For both inhibition and reduction of biofilms, overnight cultures from BHI were diluted in TSB + 1% Glc to reach an absorbance of 0.08 to 0.1 at 625 nm. The inoculum (150 µL) was transferred into wells of the 96-well flat-bottomed Ibidiμ-Plate (Ibidi, Gräfelfing, Germany) and mixed with 150 µL of each of the three tested substances in technical quadruplicates, followed by incubation at 37 °C for 24 h. Simultaneously, the prepared bacterial suspensions were inoculated to an additional microtiter plate (200 µL) and allowed to form biofilm overnight (18 h at 37 °C). After the incubation, the content of the well was drained off, and 200 µL of each of the three tested substances was added to the plate, which was then incubated for an additional 20 h. […]
All collected images were statistically evaluated to quantify biovolume utilizing the surface estimation procedure described in Parker et al.. […]

Test [4] deals with E. coli 693/17. Briefly: MIC for biofilm metabolic activity (MTT reduction assay). The format is cell-based, Escherichia coli. Conditions: for MICBM80: ≥80% inhibition, 24 h. Here is the method:
as §1, §2, §3, §4

Test [5] deals with E. coli 683/17. The description is as above. The format is cell-based, Escherichia coli. The following applies: for MICBM80: ≥80% inhibition, 24 h. Here is the method: as §1, §2, §3, §4
Test [6] has as its system L. monocytogenes 164. Briefly: MIC for planktonic cell growth (A625nm). The format is cell-based, Listeria monocytogenes. Conditions: ≥80% inhibition, 24 h. The method, then:
as §1
as §2, with “Furthermore, the sterile medium was included in the plate as a marker of potential microbial contamination.” left out, “The difference of A625nm was considered as a measure of the ability of cells to grow in the presence of the tested substances.” left out
as §3, §4

Turning to `CC(=O)c1c(O)c(C)c(O)c2c1OC1=CC(=O)C(C(C)=O)C(=O)C12C` (single isomer, unassigned; (+)) [UA, (+)-usnic acid], the “maximal achieved inhibition (MICMPB80 not reached)” value in test [1] (within tested concentrations) is 20%; in test [2] (within tested concentrations), 45%. In addition, the MICMPB80 in test [2] was more than 31.3 µg/mL. Moreover, in test [3], the “Thickness (µm) subCBM80” value is 77.6 ± 39.1 µm. Also, the “maximal achieved inhibition (MICBM80 not reached)” value in test [4] (within tested concentrations) came out at 16%; in test [5] (within tested concentrations) it was 27%. Further, the MICBM80 in test [4] and in test [5] was more than 31.3 µg/mL each time. Further, in test [6], the MICPC80 was determined as 1.96 µg/mL.
As to `CC(=O)N[C@@H](CS)C(=O)O` [NAC, N-Acetyl-L-cysteine], the MICMPB80 is recorded as 12,500 µg/mL in test [1] (≥80% inhibition, 20 h with substance) and 12,500 µg/mL in test [2]. In addition, the “Thickness (µm) MICBM80” value in test [3] (substance at its MICBM80, mean ± SD) amounted to 117 ± 41.6 µm. In test [3], the “Thickness (µm) subCBM80” value came out at 137 ± 69.6 µm. Also, the MICBM80 in test [4] and in test [5] was 6250 µg/mL in each case. In test [6], the MICPC80 is reported as 6250 µg/mL.
